Source: the supplement of paper PMC10307832

Experiments:
[1] = compound: CC(C)C[C@@H](C(=O)N[C@H](C(=O)OC1CCCC1)c1ccccc1)[C@H](O)C(=O)NO [Tosedostat] + COc1cc2c(Oc3ccc(NC(=O)C4(C(=O)Nc5ccc(F)cc5)CC4)cc3F)ccnc2cc1OCCCN1CCOCC1 [Foretinib] (partner 0.25 µM); assay: relative viability (nuclei count vs DMSO), 5 days (fraction); higher = more cells survive
Summary of the method: (§1)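 Relative viability is defined as nuclei in treated wells over nuclei in vehicle wells. Duplicate plates were run and medians reported. Lung cancer cell lines in 1536-well plates were dosed by pin tool one day after seeding, with one drug or with a fixed anchor-drug dose plus five library-drug doses (not always all listed) in √10 steps, and nuclei were counted after 5 days.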

[2] = compound: CC1=NN=C(O1)C2=NN=C(C=C2)N3CCC(CC3)OC4=C(C=CC(=C4)F)Cl + Cc1cc(Nc2cc(N3CCN(C)CC3)nc(Sc3ccc(NC(=O)C4CC4)cc3)n2)n[nH]1 [Tozasertib] (partner 0.1 µM); assay: as above
Summary of the method: as §1

Cell Line	relative viability ([1]; first compound 0.02 µM)	relative viability ([1]; first compound 0.06325 µM)	relative viability ([1]; first compound 0.2 µM)	relative viability ([1]; first compound 0.6325 µM)	relative viability ([1]; first compound 2 µM)	relative viability ([2]; first compound 0.253 µM)	relative viability ([2]; first compound 0.8 µM)	relative viability ([2]; first compound 2.53 µM)	relative viability ([2]; first compound 8 µM)
COR-L 105	1.3	0.8	1.06	0.753	0.69	0.328	0.375	0.365	0.427
NCI-H1650	1.05	0.955	1.03	0.985	0.967	–	0.357	0.361	0.235
PC-3 [JPC-3]	1.01	1.02	0.997	0.778	0.65	0.774	0.813	0.797	0.67
NCI-H1755	1.01	0.944	1	0.992	0.931	0.425	0.45	0.467	0.405
NCI-H23	1.01	0.889	0.919	0.827	0.69	0.312	–	0.275	0.46
NCI-H1915	1.13	1.1	1.14	1.05	0.947	0.265	0.222	0.222	0.192
NCI-H2405	1.03	1.02	1.07	1.02	0.932	0.415	0.325	0.395	0.424
EMC-BAC-2	0.954	1.02	0.999	1.1	0.838	0.314	0.274	0.283	0.284
NCI-H2087	1.3	1.13	1.06	0.98	0.941	0.194	0.157	0.156	0.114
NCI-H727	0.908	0.622	–	0.602	0.487	0.65	0.804	0.53	0.668
PC-14	0.948	0.936	0.987	0.868	0.912	0.523	–	0.433	0.557
NCI-H2009	1.34	1.15	1.19	1.11	1.09	0.372	0.39	0.376	0.353
NCI-H1975	0.986	0.985	1.12	0.71	0.699	–	0.595	0.48	0.261
ChaGo-K-1	0.911	0.934	0.976	0.833	0.709	0.258	0.226	0.226	0.214
NCI-H1437	1.3	1.32	1.34	1.25	1.25	0.256	0.204	0.228	0.175
NCI-H2126	1.12	1.27	1.25	1.07	1.12	0.765	0.786	0.763	0.715
LU99A	0.894	0.729	0.758	0.708	0.674	0.279	0.271	0.268	0.287
NCI-H460	1.05	1	0.968	0.977	1	0.0757	0.107	0.144	0.129
LCLC-97TM1	0.878	0.926	0.833	0.771	0.773	0.182	0.137	0.172	0.207
NCI-H838	1.1	1.02	1.04	1.08	1.13	0.244	0.248	0.247	0.245
SK-LU-1	0.975	0.724	0.662	0.792	0.652	0.325	–	0.275	0.25
H3255	0.871	0.902	1.02	0.709	0.796	0.619	0.489	0.589	0.542

Cell Line	relative viability ([1]; first compound 0.02 µM)	relative viability ([1]; first compound 0.06325 µM)	relative viability ([1]; first compound 0.2 µM)	relative viability ([1]; first compound 0.6325 µM)	relative viability ([1]; first compound 2 µM)	relative viability ([2]; first compound 0.253 µM)	relative viability ([2]; first compound 0.8 µM)	relative viability ([2]; first compound 2.53 µM)	relative viability ([2]; first compound 8 µM)
SK-MES-1	0.691	0.889	0.914	0.873	0.86	0.633	0.641	0.551	0.521
NCI-H1651	0.864	0.736	0.764	0.906	0.688	0.58	0.66	0.567	0.571
NCI-H2342	0.944	1.01	1.27	0.924	0.89	0.356	0.411	0.417	0.404
LXF-289	0.981	1	1.04	0.943	0.962	0.181	0.141	0.179	0.131
SW 900	0.854	0.904	0.709	0.765	0.61	–	–	0.415	0.477
HCC-827	0.999	1.09	1.06	0.946	0.895	0.174	0.161	0.171	0.144
LK-2	1.1	0.926	1.02	1.11	1.68	0.171	0.176	0.176	0.134
HCC-366	0.913	0.948	0.972	0.927	0.935	0.076	0.0654	0.0544	0.0419
BEN	0.713	0.825	0.799	0.878	0.846	0.505	0.423	0.454	0.46
NCI-H322M	0.995	0.899	0.93	0.904	0.857	0.488	0.482	0.422	0.436
NCI-H1395	0.917	1.05	0.952	0.918	0.871	0.69	0.581	0.72	0.683
201T	1.11	1.24	1.22	1.32	1.17	0.421	0.432	0.427	0.421
NCI-H2170	1.01	1.04	0.958	0.959	1.05	0.306	0.416	0.392	0.331
NCI-H661	1.07	0.99	0.98	0.979	0.937	0.305	0.319	0.308	0.265
RERF-LC-KJ	0.851	0.912	0.77	0.884	0.8	0.341	0.351	0.367	0.322
HCC-15	1.08	0.995	1.02	0.96	0.849	0.281	0.29	0.274	0.278
NCI-H1666	1.08	1.01	0.945	0.899	1.05	0.43	0.496	0.458	0.388
ABC-1	1.23	0.971	1.02	1.18	1.11	0.17	0.193	0.178	0.177
LCLC-103H	0.787	0.797	0.878	0.797	0.777	0.411	0.362	0.356	0.324
NCI-H650	1.05	1.04	0.92	0.941	0.765	0.724	0.698	0.676	0.682
EPLC-272H	0.658	0.512	0.58	0.355	0.185	0.36	0.228	0.184	0.158
